Tests used:
[1] = target: Human immunodeficiency virus type 1 reverse transcriptase (Human immunodeficiency virus 1) (UniProt Q72547); experiment: Inhibition of HIV1 reverse transcriptase at 50 uM relative to control
[2] = target: Human immunodeficiency virus type 1 reverse transcriptase (Human immunodeficiency virus 1, UniProt Q72547); experiment: Inhibition of HIV1 reverse transcriptase
Protease = Protease (Human immunodeficiency virus 1, UniProt Q9YQ12); experiment: Inhibition of HIV1 protease
[3] = target: Protease (Human immunodeficiency virus 1) (UniProt Q9YQ12); experiment: Inhibition of HIV1 protease at 50 uM relative to control
Protease (Human immunodeficiency virus 1), sequence (Q9YQ12 as listed by the source): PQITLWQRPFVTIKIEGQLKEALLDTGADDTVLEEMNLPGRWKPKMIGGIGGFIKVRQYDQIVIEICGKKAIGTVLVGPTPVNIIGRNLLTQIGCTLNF

Protease, sequence (Q9YQ12 whole entry): as the sequence (Q9YQ12 as listed by the source) above

Row | SMILES | inhibition [1] [%] | IC50 [2] [µM] | IC50 (Protease) [µM] | inhibition [3] [%]
1 | CCOc1cccc2cc(CNCc3cn([C@H]4C[C@H](n5cc(C)c(=O)[nH]c5=O)O[C@@H]4CO)nn3)c(=O)oc12 | 21 | 114 | 23.3 | 62
2 | Cc1cn([C@H]2C[C@H](n3cc(CNCc4cc5ccccc5oc4=O)nn3)[C@@H](CO)O2)c(=O)[nH]c1=O | 92 | 5.59 | 27.1 | 61
3 | Cc1cn([C@H]2C[C@H](n3cc(CNCC(=O)N(Cc4ccccc4)Cc4cc5cc(Br)ccc5oc4=O)nn3)[C@@H](CO)O2)c(=O)[nH]c1=O | 94 | 4.24 | 32 | 52
4 | COc1cccc2cc(CNCc3cn([C@H]4C[C@H](n5cc(C)c(=O)[nH]c5=O)O[C@@H]4CO)nn3)c(=O)oc12 | 29 | 106 | 21.6 | 64
5 | Cc1cn([C@H]2C[C@H](n3cc(CNCc4cc5cc(Br)ccc5oc4=O)nn3)[C@@H](CO)O2)c(=O)[nH]c1=O | 94 | 6.1 | 28.9 | 57
6 | Cc1cn([C@H]2C[C@H](n3cc(CNCc4cc5cc(Cl)ccc5oc4=O)nn3)[C@@H](CO)O2)c(=O)[nH]c1=O | 24 | 102 | 24.8 | 56
7 | CCOc1cccc2cc(CN(Cc3ccccc3)C(=O)CNCc3cn([C@H]4C[C@H](n5cc(C)c(=O)[nH]c5=O)O[C@@H]4CO)nn3)c(=O)oc12 | 97 | 2.86 | 27.3 | 58
8 | Cc1cn([C@H]2C[C@H](n3cc(CNCC(=O)N(Cc4ccccc4)Cc4cc5ccccc5oc4=O)nn3)[C@@H](CO)O2)c(=O)[nH]c1=O | 96 | 3.4 | 35.1 | 52
9 | Cc1cn([C@H]2C[C@H](n3cc(CNCC(=O)N(Cc4ccccc4)Cc4cc5cc(Cl)ccc5oc4=O)nn3)[C@@H](CO)O2)c(=O)[nH]c1=O | 99 | 3.69 | 29.5 | 58
10 | CC(C)c1nc(CN(C)C(=O)N[C@H](C(=O)N[C@@H](Cc2ccccc2)C[C@H](O)[C@H](Cc2ccccc2)NC(=O)OCc2cncs2)C(C)C)cs1 | – | – | – | 72
11 | COc1cccc2cc(CN(Cc3ccccc3)C(=O)CNCc3cn([C@H]4C[C@H](n5cc(C)c(=O)[nH]c5=O)O[C@@H]4CO)nn3)c(=O)oc12 | 97 | 2.88 | 22.7 | 60

From ChEMBL document CHEMBL2346501, “Synthesis and evaluation of coumarin derivatives as potential dual-action HIV-1 protease and reverse transcriptase inhibitors” (Bioorg Med Chem, 2013)
